According to patent US11702402B2, “Small molecules that block proteasome-associated ubiquitin receptor RPN13 function and uses thereof” (DANA-FARBER CANCER INSTITUTE, INC., priority 2018, dated 2023):
Where a SMILES comes first, the peptide text is derived from it. The star is where a group is joined. Cbz = O=C(OCc1ccccc1)*

How the values were obtained:
RPN13 = RPN13 (Homo sapiens, UniProt Q16186); test: Rpn13 immunoblot in MM.1S cells; assay type: cell-based; set-up: endogenous in cells; host or cells: MM.1S; MM.1S-CRBN KO; RPMI-8226; ANBL6.BR
Chain of RPN13 (Q16186 whole entry): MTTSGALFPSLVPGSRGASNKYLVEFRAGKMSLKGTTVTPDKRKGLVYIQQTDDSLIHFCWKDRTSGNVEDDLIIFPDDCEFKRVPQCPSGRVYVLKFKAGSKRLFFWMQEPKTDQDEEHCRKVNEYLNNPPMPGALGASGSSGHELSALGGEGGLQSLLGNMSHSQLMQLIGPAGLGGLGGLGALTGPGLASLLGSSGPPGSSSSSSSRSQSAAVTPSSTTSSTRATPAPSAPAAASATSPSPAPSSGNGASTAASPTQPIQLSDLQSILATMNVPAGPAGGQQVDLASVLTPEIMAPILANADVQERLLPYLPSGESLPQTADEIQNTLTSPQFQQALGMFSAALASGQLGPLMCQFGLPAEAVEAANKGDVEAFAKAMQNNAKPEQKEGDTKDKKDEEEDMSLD
Experimental: Protein lysates were loaded on SDS-PAGE and transferred to PVDF membrane, and then immunoblotted with anti-alpha tubulin and Rpn13 antibodies.
In FIG. 17, MM.1S cells were treated with RA190 or JQRA at 200 nM and 400 nM, respectively, for 48 hours; and treated with RA190 or JQRA at 200 nM and 800 nM, respectively, for 48 hours. Protein lysates were loaded on SDS-PAGE and transferred to PVDF membrane, and then immunoblotted with anti-alpha tubulin and Rpn13 antibodies.
MM.1S cells, which were treated with DMSO control, bortezomib, or WL40 at indicated concentration for 3 hours; protein lysates were analyzed for different proteasome activities (CT-L, chymotrypsin-like; T-L, trypsin-like; C-L, caspase-like). FIG. 20B is a bar graph showing percent proteasome activity after normalization with DMSO control (mean±SD; n=3). Recombinant 20S proteasome was incubated with DMSO, bortezomib, or WL40 for 30 minutes, followed by assessment of the above-noted proteasome activities. FIG. 20C MM.1S cells were pretreated with exemplary proteasome inhibitor MG132 (10 μM) for 1 hour, followed by addition of WL40 (400 nM) for 8 hours. […] Total protein lysates were subjected to immunoblots for Rpn13 and α-tubulin. […] FIG. 20E ANBL6.BR cells were treated with WL40 (400 nM) or RA190 (500 nM) for 16 hours; protein lysates were subjected to immunoblot analysis using anti-Rpn13 or anti-β-actin Abs.
Cellular protein extracts were prepared using RIPA lysis buffer (50 mM Tris-HCl, 150 mM NaCl, 1% NP-40, 0.5% sodium deoxycholate, and 0.1% SDS). Protein lysates were subjected to immunoblotting using antibodies against poly ADP ribose polymerase (PARP, BD Bioscience Pharmingen, San Diego, Calif.), caspase 3, caspase 8, p53 (Santa Cruz Biotechnology), caspase 9, p-eIF2a (Abeam, Cambridge, Mass.), caspase 7, cyclin B1, CDC25C, CDCl2, p21, Rpn13, PERK, BIP, Calnexin, GFP, LC3A/B, α-tubulin (Cell Signaling, Beverly, Mass.), polyubiquitin (Enzo Life Sciences, Inc., Farmingdale, N.Y.), or β-actin (Sigma-Aldrich, St. Louis, Mo.).
Next, it was examined whether WL40 decreases cellular Rpn13 levels in MM cells. MM.1S cells were treated with various concentrations of WL40 (20 0 nM, 400 nM, or 800 nM) for 4 hours, 8 hours, and 16 hours; protein lysates were then analyzed for Rpn13 levels using immunoblot analysis. […] Decrease in Rpn13 levels was detectable as early as 8 hours after WL40 treatment and maximally (95%) reduced at 16 hours. Rpn13 protein level reduction was not observed with RA190 treatment (FIG. 19E, lower panel). There was no change in protein levels of tubulin, used as a loading control (FIG. 19E). To further corroborate the findings, MM.1S cells were treated with WL40, and then analyzed intracellular alterations in Rpn13 using flow cytometry.

[1] = system: multiple myeloma cell lines; test: Viability of a panel of multiple myeloma cell lines; assay type: cell-based, Human; settings: multiple myeloma cell lines; 48 hours; Wst-1
Text: FIGS. […] Wst-1 assay was used to test cell viability. FIGS. 6A and 6B show the effect of exemplary bifunctional compounds WL40 and WL44 on multiple myeloma cell lines.

MM.1S cells = test: MM.1S cell viability (WST); settings: 24 hours, Wst-1
Experimental: FIGS. 4A and 4B show multiple myeloma 1S (MM.1S) cells treated with RA190, WL40, and WL44 at the indicated concentrations for 24 hours. Wst-1 assay was used to test cell viability.
In FIG. 13B, multiple myeloma cells (MM.1S) were treated with RA190 or compound JQRA at the indicated concentrations for 72 hours, and the percentage of viable cells was measured.
Purified CD138^+ patient MM cells, which were treated with DMSO control or WL40 at indicated concentrations for 48 hours, followed by assessment for cell viability using CellTiter-Glo assay (mean±SD of triplicate cultures; p<0.001). […] Normal PBMCs from healthy donors were treated with DMSO control or WL40 at indicated concentrations for 48 hours, and then analyzed for cell viability using CellTiter-Glo assay (mean±SD of quadruplicate cultures). […] MM.1S cells were cultured with or without patient BMSCs in the presence or absence of WL40 for 48 hours, and cell proliferation was measured by WST assay (mean±SD; n=3; p<0.0001). […] MM.1S cells were cultured with or without patient pDCs in the presence or absence of WL40 for 48 hours, and cell proliferation was measured by WST assay (mean±SD; n=3; p<0.0001).

normal PBMCs = test: Viability of normal PBMCs; assay type: cell-based, Human; settings: at the IC50; 48 hours; Wst-1
Experimental: FIGS. 5A and 5B show PBMCs from normal healthy donor treated with WL40 and WL44 at the indicated concentrations for 48 hours. […]
The IC50 of WL40 for cell lines is shown.

[2] = system: Ub-tagged GFP that is constitutively targeted for proteasomal degradation; test: Ub-GFP (GFPu-1) reporter cell line immunoblot; assay type: cell-based; settings: WL40, WL44 0.5-2.0 μM; RA190 1 μM; 16 hours
Experimental: Cell lysates were loaded on SDS-PAGE, transferred to PVDF membrane, then immunoblotted with anti-GFP, and anti beta-actin antibodies.
In FIG. 18, a reporter cell line expressing Ub-tagged GFP that is constitutively targeted for proteasomal degradation was treated with RA190 ([…]); and JQRA ([…]) for 16 hours. Cell lysates were loaded on SDS-PAGE, transferred to PVDF membrane, then immunoblotted with anti-GFP, and anti-alpha tubulin antibodies.
FIGS. 19A-19I show the exemplary design and characterization of exemplary Rpn13 degrader WL40. […] WL40 was created by linking the Rpn13 inhibitor RA190 to the IMiD thalidomide as a ligand for the CRBN E3 ligase via a PEG linker. […] FIG. 19C is a schematic cartoon for the novel AlphaScreen assay to measure the binding activity of inhibitor with RPN13 proteins. […] FIG. 19E depicts immunoblot analysis of multiple myeloma 1S (MM.1S) cells, which were treated with WL40 or RA190 at the indicated concentrations and time periods; protein lysates were subjected to the immunoblot analysis using anti-Rpn13 or anti-tubulin Abs. FIG. 19F depicts flow cytometry analysis of MM.1S cells, which were treated with DMSO control, WL40 (400 nM), or RA190 (500 nM) for 16 hours; cells were then washed and stained with Rpn13 Ab conjugated with AlexaFluor-647, followed by the flow cytometry analysis. Isotype Ab conjugated to AlexaFluor-647 was used as control for non-specific binding. Data was quantified using FACS Diva (BD Biosciences, USA) and FlowJo (FlowJo LLC, USA). FIG. 19G depicts immunoblot analysis of MM.1S-CRBN KO cells, which were treated with WL40 (400 nM) or RA190 (500 nM) for 16 hours; protein lysates were subjected to the immunoblot analysis using anti-Rpn13 or anti β-actin Abs. […]
To confirm that CRBN presence is a prerequisite for the function of WL40 in cells, CRBN-knockout (KO) MM.1S cells^27, 38 were utilized, and the effect of WL40 on Rpn13 degradation was examined. […] GFPu-1 cells were treated with WL40, and GFP levels were then analyzed using immunoblotting. […]

[3] = system: HCT116 and HCT116-Rpn13KO cell lines; test: HCT116 and HCT116-Rpn13KO cell viability; assay type: cell-based; settings: HCT116 versus HCT116-Rpn13KO; 48 hours; Wst-1
Experimental: FIGS. 8A and 8B show HCT116 and HCT116-Rpn13KO cell lines that were treated with WL40 or WL44 at the indicated concentrations for 48 hours. Wst-1 assay was used to test cell viability.
CRISPR-Cas9 genome editing was performed to generate Rpn13-knockout (Rpn13-KO) HCT116 and MM.1S cell lines. Cells were transfected with Rpn13-CRISPR/Cas9-knockout (KO) plasmid (Santa Cruz Biotechnology, Inc., Santa Cruz, Calif., USA) using Lipofectamine 2000 (Thermo Fisher Scientific, Waltham, Mass., USA) or the cell line Nucleofector Kit V (Amaxa Biosystems, Cologne, Germany), respectively. After 48 h incubation, green fluorescent protein (GFP)-positive cells were sorted. Rpn13 KO was confirmed by both protein expression studies and DNA sequencing.

MM.1S CRBN KO cells = test: MM.1S CRBN KO cell viability; assay type: cell-based, Human; settings: MM.1S-CRBN KO; 24 hours; Wst-1
Text: FIGS. […] Wst-1 assay was used to test cell viability.
The experiment was repeated twice and JQRA concentration was increased (as indicated) at the second time.

Row | Rpn13 levels (immunoblot) (RPN13; MM.1S cells, 200 nM, 400 nM, 800 nM, 4, 8, 16 hours) | cell viability IC50 [1] | cell viability IC50 (MM.1S cells) | Compound | WL40-mediated Rpn13 degradation after proteasome inhibitor pretreatment (RPN13; MM.1S, MG132 (10 μM) 1 hour, then WL40 (400 nM) 8 hours) | viability of normal PBMCs (normal PBMCs) | Ub-GFP levels / proteasome function (immunoblot) [2] | RPN13 dependence of cytotoxicity [3] | cell viability (MM.1S CRBN KO cells)
1 |  |  |  | CC(C)C[C@@H](C=O)NC(=O)[C@H](CC(C)C)NC(=O)[C@H](CC(C)C)NC(=O)OCc1ccccc1 [MG132, reference compound] (Cbz-Leu-Leu-Leu-aldehyde) | blocked WL40-mediated Rpn13 degradation |  |  |  | 
2 | degrade Rpn13 | high IC50 in several cell lines | lower IC50 compared to compound RA190 | O=C1CCC(N2C(=O)c3ccc(NCCOCCOCCOCCC(=O)N[C@H](Cc4ccccc4)C(=O)N4C/C(=C\c5ccc(Cl)c(Cl)c5)C(=O)/C(=C/c5ccc(Cl)c(Cl)c5)C4)cc3C2=O)C(=O)N1 (some centres unmarked) [WL44] |  | do not significantly affect the viability | block proteasome function | RPN13-dependent | decrease cell viability
